According to patent US7442796B2, “Compounds for the treatment of metabolic disorders” (Wellstat Therapeutics Corporation, priority 2003, dated 2008):

System: db/db mice
Assay: Antidiabetic effects in db/db mice (serum glucose and triglycerides after daily oral dosing)
Format: in vivo
Conditions: male db/db mice, 17 days
Source text: C57BL/Ksola (db/db) mice have a defect in leptin signaling, leading to hyperphagia, obesity and diabetes. Moreover, unlike ob/ob mice on a C57BL/6J background, db/db mice on a C57BLKS background undergo failure of their insulin-producing pancreatic islet cells, resulting in progression from hyperinsulinemia (associated with peripheral insulin resistance) to hypoinsulinemic diabetes.
Male obese (db/db homozygote) C57BL/Ksola mice approximately 8 weeks of age, were obtained from Jackson Labs (Bar Harbor, Me.) and sorted into groups of 7 animals each animals such that the body weights (40-45 g) and serum glucose levels (≧300 mg/dl in fed state) were similar between groups. A minimum of 7 days was allowed for adaptation after arrival. All animals were maintained under controlled temperature (23° C.), relative humidity (50±5%) and light (7:00-19:00), and allowed free access to standard chow (Formulab Diet 5008, Quality Lab Products, Elkridge, Md.) and water.
Treatment cohorts were given daily oral doses of vehicle (1% hydroxypropylmethylcellulose), Compounds BI, CF, CG, CQ or phenylacetate for 17 days. At the end of the treatment period, blood samples were collected and serum glucose and triglycerides were measured.

Row | SMILES | Glucose mg/dL (±SEM) (300 mg/kg daily oral) [mg/dL] | Triglycerides (300 mg/kg daily oral) [mg/dL] | Glucose mg/dL (±SEM) (60 mg/kg daily oral) [mg/dL] | Triglycerides (60 mg/kg daily oral) [mg/dL] | Glucose mg/dL (±SEM) (100 mg/kg daily oral) [mg/dL] | Triglycerides (100 mg/kg daily oral) [mg/dL]
1 | O=C(O)Cc1ccccc1 [Phenylacetate, reference compound] | 661 ± 64 | 171 ± 33 | – | – | – | –
2 | Cc1cccc(C)c1COc1cccc(C(=O)C(=O)O)c1 [CQ, [3-(2,6-Dimethylbenzyloxy)-phenyl]-oxoacetic acid] | – | – | 691 ± 37 | 175 ± 25 | 786 ± 65 | 125 ± 10
